Measurements published in patent publication US10161931B2, “Methods for determining susceptibility to coreceptor inhibitors” (Monogram Biosciences, Inc., priority 2006, dated 2018).

Key:
X4-tropic clone 42x = assay: Entry inhibitor susceptibility, pseudotyped HIV-1 entry (luciferase) assay, env clone 42x (c42); type: cell-based
Protocol: (§1) Susceptibility assays for HIV-1 entry inhibitors were performed using packaging host cells consisting of the human embryonic kidney cell line 293 (Cell Culture Facility, UC San Francisco, SF, Calif.) and target host cells consisting of a human osteosarcoma (HOS) cell line expressing CD4 (HT4) plus CCR5, and CXCR4, astrocytoma (U-87) cell lines expressing either CD4 and CCR5 or CD4 and CXCR4, or glioma (NP2) cell lines expressing CD4 and either CCR5 or CXCR4.
(§2) Drug susceptibility and tropism testing was performed using pHIVenv and pHIVluc or pHIVlucΔU3. […] After infection ([…]) the target cells were lysed and luciferase activity was measured. […] The amount of luciferase activity detected in the infected cells was used as a direct measure of “infectivity” (FIGS. 1 and 2). […] Drug susceptibility was assessed by comparing the infectivity in the absence of drug to infectivity in the presence of drug. Relative drug susceptibility can be quantified by comparing the susceptibility of the “test” virus to the susceptibility of a well-characterized reference virus (wild type) derived from a molecular clone of HIV-1, for example NL4-3 or PIXB2.
(§3) The ability of a virus to enter a cell was assessed by comparing the amount of luciferase activity produced in each cell type, e.g., cells expressing CD4 and either CCR5 or CXCR4, both in the presence and absence of drug. […]

dual-X clone 11D = assay: Entry inhibitor susceptibility, pseudotyped HIV-1 entry (luciferase) assay, env clone 11D (c11); type: cell-based; details: Human immunodeficiency virus 1; clone c11, tropism dual; read-out: Sensitivity of Entry Inhibitors
Protocol: as §1, §2, §3

dual-R clone 86d = assay: Entry inhibitor susceptibility, pseudotyped HIV-1 entry (luciferase) assay, env clone 86d (c86); type: cell-based
Protocol: as §1, §2, §3

dual-X clone 88D = assay: Entry inhibitor susceptibility, pseudotyped HIV-1 entry (luciferase) assay, env clone 88D (c88); type: cell-based; details: Human immunodeficiency virus 1; clone c88, tropism dual; read-out: Sensitivity of Entry Inhibitors
Protocol: as §1, §2, §3

dual-R clone 21d = assay: Entry inhibitor susceptibility, pseudotyped HIV-1 entry (luciferase) assay, env clone 21d (c21); type: cell-based; details: dual-R clone 21d compared to R5-, X4- and dual-X tropic clones
Protocol: as §1, §2, §3

[1] = test system: Isogenic viruses containing one or two specific mutations in the gp41 transmembrane envelope protein; assay: T-20 susceptibility of isogenic viruses with gp41 mutations (FIG. 4B); type: cell-based, HIV; details: cells expressing CD4, CCR5 and CXCR4, gp41 mutants vs wild type
Protocol: Cells expressing CD4, CCR5 and CXCR4 were infected in the absence of T-20 and over a wide range of T-20 concentrations (x-axis log 10 scale). The percent inhibition of viral replication (y-axis) was determined by comparing the amount of luciferase produced in infected cells in the presence of T-20 to the amount of luciferase produced in the absence of T-20. Isogenic viruses containing one or two specific mutations in the gp41 transmembrane envelope protein were tested (highlighted in red in the figure legend). Drug susceptibility is quantified by determining the concentration of T-20 required to inhibit 50% of viral replication (IC50, shown as vertical dashed lines). […]
as §2

Molecule | IC50 (X4-tropic clone 42x; Human immunodeficiency virus 1, clone c42, tropism X4, read-out: Sensitivity of Entry Inhibitors) | sensitivity compared to other clones (in words) (X4-tropic clone 42x; X4 clone 42d (so in the source)) | IC50 (dual-X clone 11D) | IC50 (dual-R clone 86d; Human immunodeficiency virus 1, clone c86, tropism dual-R, read-out: Sensitivity of Entry Inhibitors) | IC50 (dual-X clone 88D) | fold-reduced susceptibility (dual-R clone 21d) | susceptibility to fusion inhibitor (in words) [1] | fold-reduced susceptibility (dual-R clone 86d; dual-R clone 86d compared to R5-, X4- and dual-X tropic clones)
c1cc(CN2CCCNCCNCCCNCC2)ccc1CN1CCCNCCNCCCNCC1 [AMD] | 45.8 nM | subtle reduction in sensitivity | 3.4 nM | 5.6 nM | 8.7 nM | – | – | –
enfuvirtide | – | – | – | – | – | 4-5 fold | reduced susceptibility | 4-5 fold
